Patent US20230117034A1, “PYRAZOLOTRIAZINES” (Bayer Aktiengesellschaft, priority 2019, published 2023)

Assays:
CDK2/CycE = molecular target: T1, CDK2/CycE (Homo sapiens, UniProt P24941); experiment: CDK2/CycE kinase assay (TR-FRET, 2 mM ATP); type: biochemical; conditions: 2 mM ATP (high ATP); median; read-out: CDK2/CyclinE, 2 mM ATP (high ATP), IC50 (median)
T1 construct: purchased ProQinase GmbH (Freiburg, Germany); host or cells: insect cells (Sf9)
In short: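 GST-tagged human CDK2 and CycE from Sf9 cells, about 10 ng/ml, pre-incubated 15 min at 22 °C with compound in Tris/HCl pH 8.0 buffer. Reaction with 2 mM ATP and 0.75 µM biotinylated peptide for 25 min at 22 °C. Phospho-RB antibody TR-FRET (665/620 nm ratio) read after 1 h; data normalised to no-inhibitor and no-enzyme controls.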

[1] = tested on: BRCA1 mRNA expression in MDA-MB-231 cells; experiment: qRT-PCR assay: BRCA1 mRNA expression in MDA-MB-231; type: cell-based, human; conditions: Homo sapiens, MDA-MB-231, Inhibition of BRCA1 mRNA expression in MDA-MB-231 cells; median; read-out: RTqPCR-MDA-MB-231, IC50, BRCA1 (median)
In short: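 Cells were seeded at 200,000 cells/well, left 24 h, then exposed continuously to test substances for 24 h. Total RNA (600 ng) was reverse-transcribed to cDNA and amplified by qPCR, and transcript levels were normalised to GAPDH housekeeping expression.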

[2] = molecular target: T2, CDK12 (nuclear staining in CAL-120 cells) (Homo sapiens, UniProt Q9NYV4); experiment: CDK12 nuclear protein level: immunofluorescence/high content analysis (CAL-120); type: cell-based; conditions: for DC50: CAL-120 cells, 24 h, immunofluorescence, 50% reduction of nuclear CDK12 staining intensity, median, read-out: CDK12 degradation IF, DC50- [mol/l] (median); for (IC50 CDK12 high ATP) to (Degradation DC50 CDK12) ratio: ratio of IC50 CDK12 high ATP kinase assay to DC50 CDK12 degradation (IF, CAL-120)
T2 construct: endogenous in cells; host or cells: CAL-120 human breast cancer cells (DSMZ ACC 459)
T2 sequence (Q9NYV4 whole entry): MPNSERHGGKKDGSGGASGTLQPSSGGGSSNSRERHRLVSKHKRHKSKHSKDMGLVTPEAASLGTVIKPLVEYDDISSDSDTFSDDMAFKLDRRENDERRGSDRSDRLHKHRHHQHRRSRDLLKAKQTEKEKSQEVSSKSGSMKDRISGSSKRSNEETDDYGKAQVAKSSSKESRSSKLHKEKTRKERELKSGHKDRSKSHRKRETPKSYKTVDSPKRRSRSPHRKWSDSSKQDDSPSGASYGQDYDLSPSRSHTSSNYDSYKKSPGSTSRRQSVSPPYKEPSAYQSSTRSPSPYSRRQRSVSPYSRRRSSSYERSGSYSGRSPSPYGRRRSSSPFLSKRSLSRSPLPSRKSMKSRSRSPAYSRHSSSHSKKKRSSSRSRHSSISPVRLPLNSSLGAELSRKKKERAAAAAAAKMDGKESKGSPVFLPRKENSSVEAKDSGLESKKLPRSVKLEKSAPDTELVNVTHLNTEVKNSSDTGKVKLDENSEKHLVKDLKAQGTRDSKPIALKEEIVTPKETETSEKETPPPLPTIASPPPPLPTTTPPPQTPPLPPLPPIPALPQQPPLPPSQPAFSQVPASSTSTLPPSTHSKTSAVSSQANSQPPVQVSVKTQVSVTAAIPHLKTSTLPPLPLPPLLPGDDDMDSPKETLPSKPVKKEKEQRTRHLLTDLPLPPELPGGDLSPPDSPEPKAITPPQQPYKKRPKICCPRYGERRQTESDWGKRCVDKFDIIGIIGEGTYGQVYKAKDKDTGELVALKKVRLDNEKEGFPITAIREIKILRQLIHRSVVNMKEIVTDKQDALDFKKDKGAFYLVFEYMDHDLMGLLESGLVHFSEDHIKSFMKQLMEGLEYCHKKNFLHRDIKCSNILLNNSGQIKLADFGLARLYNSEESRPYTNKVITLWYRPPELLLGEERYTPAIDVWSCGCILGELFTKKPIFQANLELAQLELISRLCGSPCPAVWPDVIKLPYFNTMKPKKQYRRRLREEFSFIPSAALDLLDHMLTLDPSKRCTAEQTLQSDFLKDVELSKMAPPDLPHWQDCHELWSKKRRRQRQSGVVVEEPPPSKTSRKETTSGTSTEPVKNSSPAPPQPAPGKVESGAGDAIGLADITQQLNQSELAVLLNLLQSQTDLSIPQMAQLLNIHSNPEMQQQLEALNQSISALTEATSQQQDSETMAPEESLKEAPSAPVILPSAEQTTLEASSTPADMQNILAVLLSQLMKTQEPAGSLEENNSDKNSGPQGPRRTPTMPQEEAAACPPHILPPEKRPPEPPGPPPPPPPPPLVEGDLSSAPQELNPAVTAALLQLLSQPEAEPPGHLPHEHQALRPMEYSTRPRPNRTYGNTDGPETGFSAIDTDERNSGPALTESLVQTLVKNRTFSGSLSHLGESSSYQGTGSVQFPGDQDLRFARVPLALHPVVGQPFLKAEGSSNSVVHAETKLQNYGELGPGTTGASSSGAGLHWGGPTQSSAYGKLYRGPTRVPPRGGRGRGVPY
T2 sequence (O75909 whole entry partner): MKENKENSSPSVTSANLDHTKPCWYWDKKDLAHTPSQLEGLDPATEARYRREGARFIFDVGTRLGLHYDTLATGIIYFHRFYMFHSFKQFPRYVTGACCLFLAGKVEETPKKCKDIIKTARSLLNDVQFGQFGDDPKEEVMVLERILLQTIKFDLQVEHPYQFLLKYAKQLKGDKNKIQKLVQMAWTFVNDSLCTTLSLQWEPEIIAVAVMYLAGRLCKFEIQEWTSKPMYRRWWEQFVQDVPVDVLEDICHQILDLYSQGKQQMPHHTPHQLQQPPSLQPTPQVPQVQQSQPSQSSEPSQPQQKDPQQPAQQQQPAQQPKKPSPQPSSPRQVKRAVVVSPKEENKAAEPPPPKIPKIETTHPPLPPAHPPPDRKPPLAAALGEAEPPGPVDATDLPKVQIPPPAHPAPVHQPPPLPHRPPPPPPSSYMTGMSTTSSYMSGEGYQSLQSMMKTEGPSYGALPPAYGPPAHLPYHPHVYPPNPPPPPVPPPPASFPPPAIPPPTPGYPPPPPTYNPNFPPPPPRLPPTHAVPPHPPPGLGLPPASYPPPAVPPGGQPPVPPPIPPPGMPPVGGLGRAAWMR
In short: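 CAL-120 cells were treated with compound for 24 h at 37 °C, fixed with PFA and immunostained for CDK12. Nuclear CDK12 intensity was quantified by automated image analysis and normalized to DMSO and control. DC50 is the concentration giving 50% reduction of nuclear staining.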

| SMILES | IC50 (CDK2/CycE) | IC50 [1] | DC50 [2] | (IC50 CDK12 high ATP) to (Degradation DC50 CDK12) ratio [2] |
| --- | --- | --- | --- | --- |
| Cc1cc2nc(CNc3nc(N(C)CC(C)(C)O)nc4c(Br)cnn34)[nH]c2cc1C [Example 343, 1-[(8-bromo-4-{[(5,6-dimethyl-1H-benzimidazol-2-yl)methyl]amino}pyrazolo[1,5-a][1,3,5]triazin-2-yl)(methyl)amino]-2-methylpropan-2-ol] | 1.19 µM | 1.91 nM | 3.56 nM | 53 |
| CN1CCN(c2nc(NCc3nc4c(F)c(Cl)ccc4[nH]3)n3ncc(C4CC4)c3n2)CC1 [Example 371, N-[(5-chloro-4-fluoro-1H-benzimidazol-2-yl)methyl]-8-cyclopropyl-2-(4-methylpiperazin-1-yl)pyrazolo[1,5-a][1,3,5]triazin-4-amine] | > 20 µM | 7.36 nM | 4.16 nM | 1263 |
| Fc1ccc2[nH]c(CNc3nc(N4CCOCC4)nc4c(Cl)cnn34)nc2c1F [Example 357] | 11.9 µM | 6.05 nM | 3.9 nM | 295 |
| CN1C2CCC1CN(c1nc(NCc3nc4c(F)cccc4[nH]3)n3ncc(C(F)(F)F)c3n1)C2 [Example 384, N-[(4-fluoro-1H-benzimidazol-2-yl)methyl]-2-(8-methyl-3,8-diazabicyclo[3.2.1]octan-3-yl)-8-(trifluoromethyl)pyrazolo[1,5-a][1,3,5]triazin-4-amine] | > 20 µM | 13.6 nM | 11 nM | 735 |
| Cc1cc2nc(CNc3nc(N4CCOCC4)nc4c(Br)cnn34)[nH]c2cc1C [Example 340, 8-bromo-N-[(5,6-dimethyl-1H-benzimidazol-2-yl)methyl]-2-(morpholin-4-yl)pyrazolo[1,5-a][1,3,5]triazin-4-amine] | 1.16 µM | 8.16 nM | 7.8 nM | 79 |
| Cc1cc2nc(CNc3nc(N4CCOCC4)nc4c(C5CC5)cnn34)[nH]c2cc1C [Example 320, 8-cyclopropyl-N-[(5,6-dimethyl-1H-benzimidazol-2-yl)methyl]-2-(morpholin-4-yl)pyrazolo[1,5-a][1,3,5]triazin-4-amine] | 4.71 µM | 3.59 nM | 4.28 nM | 130 |
| Clc1cc2nc(CNc3nc(N4CC5CCC(C4)N5)nc4c(Br)cnn34)[nH]c2cc1Cl [Example 334, 8-bromo-2-(3,8-diazabicyclo[3.2.1]octan-3-yl)-N-[(5,6-dichloro-1H-benzimidazol-2-yl)methyl]pyrazolo[1,5-a][1,3,5]triazin-4-amine] | 10.5 µM | 4.02 nM | 33.5 nM | 60 |
| Fc1ccc(-c2nnc(CNc3nc(N4CCOCC4)nc4c(Br)cnn34)[nH]2)cc1 [Example 29, 8-bromo-N-{[5-(4-fluorophenyl)-4H-1,2,4-triazol-3-yl]methyl}-2-(morpholin-4-yl)pyrazolo[1,5-a][1,3,5]triazin-4-amine] | 3.08 µM | 21.2 nM | 11.8 nM | 310 |
| Fc1cc2nc(CNc3nc(N4CCOCC4)nc4c(Br)cnn34)[nH]c2cc1Cl [Example 336, 8-bromo-N-[(6-chloro-5-fluoro-1H-benzimidazol-2-yl)methyl]-2-(morpholin-4-yl)pyrazolo[1,5-a][1,3,5]triazin-4-amine] | 8.95 µM | 8 nM | 3.08 nM | 256 |
| CN(CC(C)(C)O)c1nc(NCc2nc3cc(Cl)c(Cl)cc3[nH]2)n2ncc(Br)c2n1 [Example 331, 1-[(8-bromo-4-{[(5,6-dichloro-1H-benzimidazol-2-yl)methyl]amino}pyrazolo[1,5-a][1,3,5]triazin-2-yl)(methyl)amino]-2-methylpropan-2-ol] | 7.31 µM | 2.56 nM | 6 nM | 58 |
